Paper PMC6150234, “HPLC Analysis and Biochemical Characterization of LOX from Eschscholtzia californica Cham” (Molecules : A Journal of Synthetic Chemistry and Natural …, 2017)

System: T1, California poppy LOX (purified LOX from California poppy seedlings; 9/13-LOX)
T1 construct: 85 kDa on SDS-PAGE
Test: A234 spectrophotometry; Lineweaver-Burk
Assay type: biochemical, Eschscholzia californica
Conditions: 100 mM potassium phosphate pH 6.5, room temperature; 0.476-1.33 mM LA

Q: For `CCCCC/C=C\C/C=C\CCCCCCCC(=O)O` [linoleic acid], which Km is on record?
A: Its Km is 2600 µM.
